Reference: US20250163057A1, “DCN-1 MODULATING COMPOUNDS AND METHODS OF USE THEREOF” (Cellarity, Inc., priority 2023, published 2025)
Read-outs that look alike come from different tables or passages of the source.

Target: DCN1 (DCUND1) protein PONY domain (Homo sapiens (Human), UniProt Q96GG9)
Test: TR-FRET assay, DCN1 binding with FAM-labeled probe
In short: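 Tb-DCN1 PONY domain (E. coli, biotin/streptavidin-Tb); FAM-labelled non-covalent inhibitor probe; TritonX buffer, 200 mM NaCl; 5 nM DCN1 + 20 nM probe or 0.31 nM DCN1 + 900 nM total probe; 0.1% DMSO; TR-FRET read 1, 5, 24 hrs.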

[1] = 24 hr after treatment with compound, read-out: TR FRET IC50 24 hr
[2] = TR FRET IC50 1 hr (nM), 1 hr after treatment with compound
[3] = read-out: TR FRET IC50 1 hr, 1 hr after treatment with compound

Chain of DCN1 (DCUND1) protein PONY domain (Q96GG9 60-248): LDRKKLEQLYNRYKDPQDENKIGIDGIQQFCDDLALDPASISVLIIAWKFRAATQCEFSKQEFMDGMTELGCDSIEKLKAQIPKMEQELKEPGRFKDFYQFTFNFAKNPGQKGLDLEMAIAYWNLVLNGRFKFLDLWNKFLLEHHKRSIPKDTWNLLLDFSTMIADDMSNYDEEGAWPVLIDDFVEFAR

Compound | IC50 [1] | IC50 [2] | IC50 [3]
C=C(COC)C(=O)NCc1nn(-c2ccccc2)c2c1[C@@H](c1ccc(F)cc1)[C@H](NC(=O)c1cccc(C(F)(F)F)c1)C(=O)N2CC [Compound I-109] | 200 to 1000 nM | 200 to 1000 nM | –
CCN1C(=O)[C@@H](NC(=O)c2cccc(C(F)(F)F)c2)[C@@H](C2CC2)c2c(CN(C)C#N)nn(-c3ccccc3)c21 [Compound I-111] | 200 to 1000 nM | 1000 to 3000 nM | –
C=C(COC)C(=O)NCc1nn(-c2ccccc2)c2c1[C@H](c1ccc(F)cc1)[C@H](NC(=O)c1cccc(C(F)(F)F)c1)C(=O)N2CC [Compound I-113] | 200 to 1000 nM | 200 to 1000 nM | –
CCN1C(=O)[C@@H](NC(=O)c2cccc(C(F)(F)F)c2)[C@@H](c2ccc(F)cc2)c2c(CNC(=O)C34CC3C4)nn(-c3ccccc3)c21 (stereo partly drawn) [Compound I-114, N-[[(4S, 5S)-7-ethyl-4-(4-fluorophenyl)-6-oxo-1-phenyl-5-[[3-(trifluoromethyl)benzoyl]amino]-4,5-dihydropyrazolo[3,4-b]pyridine-3-yl]methyl]bicyclo[1.1.0]butane-1-carboxamide] | 200 to 1000 nM | 200 to 1000 nM | –
CCN1C(=O)[C@@H](NC(=O)c2cccc(C(F)(F)F)c2)[C@@H](c2ccc(F)cc2)c2c(C/C=C/C(=O)NCCN(C)C)nn(-c3ccccc3)c21 [Compound I-118] | 200 to 1000 nM | 200 to 1000 nM | –
CCN1C(=O)[C@@H](NC(=O)c2cccc(C(F)(F)F)c2)[C@@H](c2ccc(F)cc2)c2c(CC/C=C/C(N)=O)nn(-c3ccccc3)c21 [Compound I-124] | 200 to 1000 nM | 200 to 1000 nM | –
CCN1C(=O)[C@@H](NC(=O)c2cccc(C(F)(F)F)c2)[C@@H](c2ccc(F)cc2)c2c([C@@H](O)CNC#N)nn(-c3ccccc3)c21 [Compound I-130] | 200 to 1000 nM | 200 to 1000 nM | –
CCN1C(=O)[C@@H](NC(=O)c2cccc(C(F)(F)F)c2)[C@@H](c2ccc(F)cc2)c2c(CNC(=O)C3=C(C(=O)OC)CCC3)nn(-c3ccccc3)c21 [Compound I-135] | 200 to 1000 nM | 200 to 1000 nM | –
C[C@@H](NC#N)c1nn(-c2ccccc2)c2c1[C@H](c1ccc(F)cc1)[C@H](NC(=O)c1cccc(C(F)(F)F)c1)C(=O)N2CCOP(=O)(O)O [Compound I-162] | ≤ 200 nM | – | ≤ 200 nM
CCN1C(=O)[C@@H](NC(=O)C2(c3ccccc3)CC2)[C@@H](C2CC2)c2c(C(=O)N3[C@H](C#N)C[C@H]4C[C@H]43)nn(C3CCOCC3)c21 [Compound I-419] | 1000 to 3000 nM | 1000 to 3000 nM | –
CCN1C(=O)[C@@H](NC(=O)C2CCN(C)CC2)[C@@H](C2CC2)c2c(C(=O)N3[C@H](C#N)C[C@H]4C[C@H]43)nn(C3CCOCC3)c21 [Compound I-423] | 1000 to 3000 nM | 1000 to 3000 nM | –
CCN1C(=O)[C@@H](NC(=O)CC(C)(C)C)[C@@H](C2CC2)c2c(C(=O)N3[C@H](C#N)C[C@H]4C[C@H]43)nn(C3CCOCC3)c21 [Compound I-424] | 1000 to 3000 nM | 1000 to 3000 nM | –
CCN1C(=O)[C@@H](NC(=O)CCc2cnn(C)c2)[C@@H](C2CC2)c2c(C(=O)N3[C@H](C#N)C[C@H]4C[C@H]43)nn(C3CCOCC3)c21 [Compound I-433] | 1000 to 3000 nM | 1000 to 3000 nM | –
CCN1C(=O)[C@@H](NC(=O)C2CC(=O)N(Cc3ccccc3)C2)[C@@H](C2CC2)c2c(C(=O)N3[C@H](C#N)C[C@H]4C[C@H]43)nn(C3CCOCC3)c21 (stereo partly shown) [Compound I-435] | 1000 to 3000 nM | 1000 to 3000 nM | –
CCN1C(=O)[C@@H](NC(=O)C(C)c2cccc(F)c2)[C@@H](C2CC2)c2c(C(=O)N3[C@H](C#N)C[C@H]4C[C@H]43)nn(C3CCOCC3)c21 (stereo partly shown) [Compound I-440] | 1000 to 3000 nM | 1000 to 3000 nM | –
CCN1C(=O)[C@@H](CC(=O)CC2CC2)[C@@H](C2CC2)c2c(C(=O)N3[C@H](C#N)C[C@H]4C[C@H]43)nn(C3CCOCC3)c21 [Compound I-466] | 1000 to 3000 nM | 1000 to 3000 nM | –
CCN1C(=O)[C@@H](NC(=O)c2cccc(C(F)(F)F)c2C)[C@@H](C2CC2)c2c(C(=O)N3[C@H](C#N)C[C@H]4C[C@H]43)nn(C3CCOCC3)c21 [Compound I-468] | ≤ 200 nM | – | ≤ 200 nM
CCN1C(=O)[C@@H](NC(=O)c2sc(NC(C)=O)nc2C)[C@@H](C2CC2)c2c(C(=O)N3[C@H](C#N)C[C@H]4C[C@H]43)nn(C3CCOCC3)c21 [Compound I-471] | 1000 to 3000 nM | 1000 to 3000 nM | –
CCN1C(=O)[C@@H](NC(=O)c2ccn(C(C)C)n2)[C@@H](C2CC2)c2c(C(=O)N3[C@H](C#N)C[C@H]4C[C@H]43)nn(C3CCOCC3)c21 [Compound I-472] | ≤ 200 nM | 200 to 1000 nM | –
CCN1C(=O)[C@@H](NC(=O)c2c(Cl)cccc2Cl)[C@@H](C2CC2)c2c(C(=O)N3[C@H](C#N)C[C@H]4C[C@H]43)nn(C3CCOCC3)c21 [Compound I-473] | 1000 to 3000 nM | 1000 to 3000 nM | –
CCN1C(=O)[C@@H](NC(=O)c2cc(S(C)(=O)=O)ccc2F)[C@@H](C2CC2)c2c(C(=O)N3[C@H](C#N)C[C@H]4C[C@H]43)nn(C3CCOCC3)c21 [Compound I-475] | 1000 to 3000 nM | 1000 to 3000 nM | –

Compound | IC50 [1] | IC50 [2] | IC50 [3]
CCN1C(=O)[C@@H](NC(=O)c2ccc(F)c(F)c2OC)[C@@H](C2CC2)c2c(C(=O)N3[C@H](C#N)C[C@H]4C[C@H]43)nn(C3CCOCC3)c21 [Compound I-502] | 200 to 1000 nM | 1000 to 3000 nM | –
CCN1C(=O)[C@@H](NC(=O)CC2=C(C)Cc3ccc(F)cc32)[C@@H](C2CC2)c2c(C(=O)N3[C@H](C#N)C[C@H]4C[C@H]43)nn(C3CCOCC3)c21 [Compound I-504] | 1000 to 3000 nM | 1000 to 3000 nM | –
CCN1C(=O)[C@@H](NC(=O)c2cccc(N3CCCC3=O)c2)[C@@H](C2CC2)c2c(C(=O)N3[C@H](C#N)C[C@H]4C[C@H]43)nn(C3CCOCC3)c21 [Compound I-505] | 1000 to 3000 nM | 1000 to 3000 nM | –
CCN1C(=O)[C@@H](NC(=O)c2cnn(CC(F)(F)F)c2)[C@@H](C2CC2)c2c(C(=O)N3[C@H](C#N)C[C@H]4C[C@H]43)nn(C3CCOCC3)c21 [Compound I-507] | 1000 to 3000 nM | 1000 to 3000 nM | –
CCN1C(=O)[C@@H](NC(=O)c2ccc(C3CC3)cc2)[C@@H](C2CC2)c2c(C(=O)N3[C@H](C#N)C[C@H]4C[C@H]43)nn(C3CCOCC3)c21 [Compound I-508] | ≤ 200 nM | 1000 to 3000 nM | –
CCN1C(=O)[C@@H](NC(=O)CN2C(=O)CSc3ccccc32)[C@@H](C2CC2)c2c(C(=O)N3[C@H](C#N)C[C@H]4C[C@H]43)nn(C3CCOCC3)c21 [Compound I-510] | 1000 to 3000 nM | 1000 to 3000 nM | –
CCN1C(=O)[C@@H](NC(=O)Cc2ccc(C)cc2C)[C@@H](C2CC2)c2c(C(=O)N3[C@H](C#N)C[C@H]4C[C@H]43)nn(C3CCOCC3)c21 [Compound I-511] | 1000 to 3000 nM | 1000 to 3000 nM | –
CCN1C(=O)[C@@H](NC(=O)c2nc3c(s2)CN(C)CC3)[C@@H](C2CC2)c2c(C(=O)N3[C@H](C#N)C[C@H]4C[C@H]43)nn(C3CCOCC3)c21 [Compound I-512] | 1000 to 3000 nM | 1000 to 3000 nM | –
CCN1C(=O)[C@@H](NC(=O)c2cnc(C(F)(F)F)s2)[C@@H](C2CC2)c2c(C(=O)N3[C@H](C#N)C[C@H]4C[C@H]43)nn(C3CCOCC3)c21 [Compound I-513] | 1000 to 3000 nM | 1000 to 3000 nM | –
CCN1C(=O)[C@@H](NC(=O)C2CC2C(F)(F)F)[C@@H](C2CC2)c2c(C(=O)N3[C@H](C#N)C[C@H]4C[C@H]43)nn(C3CCOCC3)c21 (stereo partly shown) [Compound I-523] | 1000 to 3000 nM | 1000 to 3000 nM | –
CCN1C(=O)[C@@H](NC(=O)CS(C)(=O)=O)[C@@H](C2CC2)c2c(C(=O)N3[C@H](C#N)C[C@H]4C[C@H]43)nn(C3CCOCC3)c21 [Compound I-546] | 1000 to 3000 nM | 1000 to 3000 nM | –
CCN1C(=O)[C@@H](NC(=O)c2ccc3c(c2)CCO3)[C@@H](C2CC2)c2c(C(=O)N3[C@H](C#N)C[C@H]4C[C@H]43)nn(C3CCOCC3)c21 [Compound I-547] | ≤ 200 nM | 200 to 1000 nM | –
CCN1C(=O)[C@@H](NC(=O)c2ccccc2)[C@@H](C2CC2)c2c(C(=O)N3[C@H](C#N)C[C@H]4C[C@H]43)nn(C3CCOCC3)c21 [Compound I-553] | ≤ 200 nM | 200 to 1000 nM | –
CCN1C(=O)[C@@H](NC(=O)COc2ccc3c(c2)CCC3)[C@@H](C2CC2)c2c(C(=O)N3[C@H](C#N)C[C@H]4C[C@H]43)nn(C3CCOCC3)c21 [Compound I-554] | 1000 to 3000 nM | 1000 to 3000 nM | –
CCN1C(=O)[C@@H](NC(=O)CC#N)[C@@H](C2CC2)c2c(C(=O)N3[C@H](C#N)C[C@H]4C[C@H]43)nn(C3CCOCC3)c21 [Compound I-555] | 1000 to 3000 nM | 1000 to 3000 nM | –
CCN1C(=O)[C@@H](NC(=O)CCN2C(=O)COc3ccccc32)[C@@H](C2CC2)c2c(C(=O)N3[C@H](C#N)C[C@H]4C[C@H]43)nn(C3CCOCC3)c21 [Compound I-556] | 1000 to 3000 nM | 1000 to 3000 nM | –
CCN1C(=O)[C@@H](NC(=O)c2ccc(N3CCN(C)CC3)cn2)[C@@H](C2CC2)c2c(C(=O)N3[C@H](C#N)C[C@H]4C[C@H]43)nn(C3CCOCC3)c21 [Compound I-588] | 1000 to 3000 nM | 1000 to 3000 nM | –
CCN1C(=O)[C@@H](NC(=O)c2cncc(C(F)(F)F)n2)[C@@H](C2CC2)c2c(C(=O)N3[C@H](C#N)C[C@H]4C[C@H]43)nn(C3CCOCC3)c21 [Compound I-590] | 1000 to 3000 nM | 1000 to 3000 nM | –
CCN1C(=O)[C@@H](NC(=O)C2=NN(c3ccccc3)C(=O)C2)[C@@H](C2CC2)c2c(C(=O)N3[C@H](C#N)C[C@H]4C[C@H]43)nn(C3CCOCC3)c21 [Compound I-591] | 1000 to 3000 nM | 1000 to 3000 nM | –
CCN1C(=O)[C@@H](NC(=O)Cc2cccc(C(F)(F)F)c2)[C@@H](C2CC2)c2c(C(=O)N3[C@H](C#N)C[C@H]4C[C@H]43)nn(C3CCOCC3)c21 [Compound I-592] | 1000 to 3000 nM | 1000 to 3000 nM | –
